Results on 16 compounds are retold here after PubChem BioAssay (NCI).

Values joined by “and” are separate entries in the source; they are usually repeats but may differ in a detail not shown here. Equal entries are not always repeated.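 Tested at 5 concentrations; 48 h exposure; 96-well plates; endpoints linearly interpolated, else capped at highest concentration. GI50 is the concentration that inhibits growth by half. TGI denotes the concentration required for complete inhibition of growth.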

Test systems include HCC-2998 colon; TK-10 renal; SF-268 CNS; UACC-257 melanoma; NCI-H226 lung; SK-OV-3 ovarian; HT29 colon; SF-295 CNS; UO-31 renal; RXF 393 renal.
What all share (test): NCI-60 cell line screen, 48 h

Regarding `C=CC(=O)NCNC(=O)C=C`, the TGI in the test with HCC-2998 colon, with TK-10 renal, in the test with SF-268 CNS, with UACC-257 melanoma, in the test on NCI-H226 lung and in the test with SK-OV-3 ovarian was over 100 µM throughout. Moreover, the TGI in the test with HT29 colon, in the test with SF-295 CNS and in the test on UO-31 renal was over 100 µM throughout.

In the case of `COc1cc(/C=C/C(=O)c2ccc(F)cc2)ccc1OCCCCCOc1cc2c(cc1OC)C(=O)N1CCCC1C=N2` (stereo not given), the GI50 in the test with RXF 393 renal is 0.11 µM; in the test on HCC-2998 colon it was under 0.0174 µM; with TK-10 renal it was 0.123 µM; in the test with SF-268 CNS, 0.0177 µM; in the test with UACC-257 melanoma, 0.238 µM; in the test with NCI-H226 lung, 0.0493 µM. Also, the GI50 with SK-OV-3 ovarian is 0.212 µM; with HT29 colon it was under 0.016 µM; in the test with SF-295 CNS, under 0.01 µM; with UO-31 renal, 0.0473 µM. Besides, the TGI in the test with RXF 393 renal was 0.283 µM; in the test with HCC-2998 colon it was 0.0382 µM; in the test on TK-10 renal, 0.981 µM; with SF-268 CNS, 0.0613 µM; with UACC-257 melanoma, 1.17 µM; in the test with NCI-H226 lung, 1.07 µM. For the same compound, the TGI with SK-OV-3 ovarian is 6.06 µM; in the test on HT29 colon, 1.48 µM; in the test with SF-295 CNS it was under 0.0108 µM; in the test on UO-31 renal it was 3.64 µM.

Take `Cc1cc(C)c(NC(=O)/C=C/c2ccccc2)c(C)c1`: the TGI with RXF 393 renal, in the test on HCC-2998 colon, with TK-10 renal, with SF-268 CNS, in the test on UACC-257 melanoma and in the test on NCI-H226 lung was over 100 µM each time. Besides, the TGI in the test with SK-OV-3 ovarian, with HT29 colon, with SF-295 CNS and in the test on UO-31 renal was over 100 µM each time.

`OCC1OC(n2cnc3c(SCc4ccccc4)ncnc32)C(O)C1O` (stereo not given): the TGI in the test on RXF 393 renal, in the test with HCC-2998 colon, in the test with TK-10 renal, with SF-268 CNS, in the test on UACC-257 melanoma and with NCI-H226 lung was over 100 µM throughout. The TGI in the test on SK-OV-3 ovarian, in the test with HT29 colon, in the test on SF-295 CNS and in the test with UO-31 renal was over 100 µM each time.

On to `CC(C)OC(=O)NNc1cccc(Cl)c1`, for which the TGI with RXF 393 renal, with HCC-2998 colon, with TK-10 renal, in the test on SF-268 CNS, in the test on UACC-257 melanoma and with NCI-H226 lung was over 100 µM throughout. The TGI with SK-OV-3 ovarian, in the test on HT29 colon, with SF-295 CNS and with UO-31 renal was over 100 µM each time.

Consider `Oc1c(Cl)c(Cl)c(O)c(CCNc2nccs2)c1Cl`, for which the TGI in the test with RXF 393 renal was determined as 20.3 µM; in the test on HCC-2998 colon, 30.3 µM; in the test on TK-10 renal, 33 µM; in the test with SF-268 CNS, 36.1 µM; with UACC-257 melanoma, 58.7 µM; in the test on SK-OV-3 ovarian, 30.3 µM. Besides, the TGI with HT29 colon came out at 51.8 µM; in the test on SF-295 CNS, 41.5 µM; in the test with UO-31 renal, 32.9 µM.

Consider `Cc1cccc(N=C/C=C(\Cl)c2ccc3ccccc3c2)c1`, for which the TGI in the test with RXF 393 renal was over 56.9 µM; with TK-10 renal, 50.8 µM; with SF-268 CNS, over 79.4 µM; in the test on UACC-257 melanoma, 39.1 µM; in the test on NCI-H226 lung, over 69.3 µM; with SK-OV-3 ovarian, 53.5 µM. Besides, the values for the TGI in the test with HT29 colon, with SF-295 CNS and in the test on UO-31 renal were over 62.7 µM, over 58.7 µM and 34.4 µM, respectively.

Regarding `CN1CCN(c2ccc3[nH]c(C4=C(O)C(=O)[C@@H]5C(=C4O)N=C(CO)N5C)nc3n2)CC1`, the TGI with RXF 393 renal, in the test on HCC-2998 colon, in the test with SF-268 CNS, in the test with UACC-257 melanoma, with NCI-H226 lung and with SK-OV-3 ovarian was over 100 µM in each case. The TGI with HT29 colon, in the test with SF-295 CNS and with UO-31 renal was over 100 µM in each case.

Regarding `CC(=O)N=c1ccc2nc(N)nn(O)c-2c1`, the TGI in the test with TK-10 renal, in the test with SF-268 CNS, with UACC-257 melanoma, with NCI-H226 lung, in the test with SK-OV-3 ovarian and with HT29 colon was over 100 µM each time. Moreover, the TGI with SF-295 CNS and in the test on UO-31 renal was over 100 µM throughout.

In the case of `CCCCCCCCCC/C=C/C=O`, the TGI in the test with RXF 393 renal, with HCC-2998 colon, in the test with TK-10 renal, in the test with SF-268 CNS, with UACC-257 melanoma and with SK-OV-3 ovarian was over 100 µM throughout. Also, the TGI in the test with HT29 colon, in the test on SF-295 CNS and with UO-31 renal was over 100 µM each time.

With `C/C(=N\O)C1CC2C=C(C#N)C1N(Cc1ccccc1)C2` (stereo not given), the TGI in the test with RXF 393 renal, with HCC-2998 colon, in the test on TK-10 renal, in the test on SF-268 CNS, with UACC-257 melanoma and with NCI-H226 lung was over 100 µM each time. Further, the TGI with SK-OV-3 ovarian, in the test on HT29 colon, in the test with SF-295 CNS and in the test on UO-31 renal was over 100 µM in each case.

With `O=C(c1ccccc1)C(Nc1ccc2ccccc2c1)c1ccccc1` (stereo not given), the TGI in the test on RXF 393 renal was over 100 µM; in the test with HCC-2998 colon it was 56.6 µM; in the test on TK-10 renal it was over 100 µM; in the test with SF-268 CNS, over 100 µM; in the test with UACC-257 melanoma it was 48.2 µM; with NCI-H226 lung, over 100 µM. For the same compound, the TGI in the test on SK-OV-3 ovarian, with HT29 colon, with SF-295 CNS and with UO-31 renal was over 100 µM throughout.

As to `COc1cc2cc3c4cc(OC)c(OC)cc4cc[n+]3c(C)c2cc1OC`, the TGI in the test with HCC-2998 colon, in the test with TK-10 renal, in the test with SF-268 CNS, with UACC-257 melanoma, in the test on NCI-H226 lung and in the test on SK-OV-3 ovarian was over 100 µM each time. In addition, the TGI with HT29 colon, in the test on SF-295 CNS and in the test with UO-31 renal was over 100 µM each time.

Turning to `COCC12CCC(OC)C34C5CC6(O)C(OC)C=C(C5C6OC(=O)c5ccccc5)C(C(OC)C13)C4N(C)C2` (stereo not given), the TGI in the test with RXF 393 renal, in the test with HCC-2998 colon, in the test on TK-10 renal, with SF-268 CNS, in the test on UACC-257 melanoma and in the test on SK-OV-3 ovarian was over 100 µM each time. In addition, the TGI in the test on HT29 colon, in the test on SF-295 CNS and with UO-31 renal was over 100 µM each time.

With `CCP(=O)(CC)C(Cl)(Cl)C(O)C(Cl)(Cl)Cl` (stereo not given), the TGI with HCC-2998 colon, in the test with TK-10 renal, in the test with UACC-257 melanoma, in the test with NCI-H226 lung, in the test on SK-OV-3 ovarian and in the test on HT29 colon was over 100 µM in each case. Besides, the TGI in the test on SF-295 CNS and with UO-31 renal was over 100 µM throughout.

As to `[N-]=[N+]=CC(=O)OCC1NC(=O)C(COC(=O)C=[N+]=[N-])NC1=O` (stereo not given), the GI50 in the test with RXF 393 renal was 15.8 µM and > 100 µM. Also, the TGI with RXF 393 renal, with HCC-2998 colon, in the test with TK-10 renal, in the test with SF-268 CNS, with UACC-257 melanoma and with NCI-H226 lung was over 100 µM each time. For the same compound, the TGI with SK-OV-3 ovarian, with HT29 colon, in the test with SF-295 CNS and with UO-31 renal was over 100 µM throughout.
